Reference: ChEMBL document CHEMBL1781967, “1-[4-(N-Benzylamino)phenyl]-3-phenylurea derivatives as a new class of hypoxia-inducible factor-1alpha inhibitors” (Bioorg Med Chem Lett, 2009)
Calls of active or inactive are those of the source. No cut-off for these calls is given here.

Columns and labels:
HeLa [1] = assay: Effect on HIF1beta protein level in human HeLa cells incubated for 4 hrs under hypoxic conditions by Western blot
[2] = target: T1, Hypoxia-inducible factor 1-alpha (Homo sapiens, UniProt Q16665); assay: Inhibition of hypoxia-induced HIF1alpha transcriptional activity in HEK293 cells incubated for 16 hrs by hypoxia response element-driven luciferase reporter gene assay; assay type: cell-based
Target sequence in this assay (Q16665 whole entry): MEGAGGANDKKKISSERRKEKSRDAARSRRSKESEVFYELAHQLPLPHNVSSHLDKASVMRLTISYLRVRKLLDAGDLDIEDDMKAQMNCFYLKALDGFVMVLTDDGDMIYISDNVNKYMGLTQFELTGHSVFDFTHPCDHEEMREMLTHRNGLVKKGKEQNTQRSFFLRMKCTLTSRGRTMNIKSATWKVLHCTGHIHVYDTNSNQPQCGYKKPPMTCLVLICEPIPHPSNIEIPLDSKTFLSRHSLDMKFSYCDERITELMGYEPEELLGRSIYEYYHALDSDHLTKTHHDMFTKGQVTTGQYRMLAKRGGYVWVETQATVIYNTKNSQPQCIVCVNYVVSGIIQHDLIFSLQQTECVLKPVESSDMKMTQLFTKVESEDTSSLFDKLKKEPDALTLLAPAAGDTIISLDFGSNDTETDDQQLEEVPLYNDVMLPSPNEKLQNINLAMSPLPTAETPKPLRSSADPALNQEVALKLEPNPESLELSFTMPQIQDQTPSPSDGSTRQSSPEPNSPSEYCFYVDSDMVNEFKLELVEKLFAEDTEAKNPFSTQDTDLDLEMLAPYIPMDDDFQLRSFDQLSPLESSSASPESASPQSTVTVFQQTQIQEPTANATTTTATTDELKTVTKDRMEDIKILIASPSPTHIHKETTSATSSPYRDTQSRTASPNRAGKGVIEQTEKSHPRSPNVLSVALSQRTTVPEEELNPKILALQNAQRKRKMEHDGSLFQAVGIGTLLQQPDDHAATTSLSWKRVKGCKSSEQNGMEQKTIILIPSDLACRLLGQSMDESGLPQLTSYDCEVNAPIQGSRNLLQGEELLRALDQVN

HeLa [3] = assay: Inhibition of hypoxia-induced VEGF secretion in human HeLa cells incubated for 12 hrs under hypoxic conditions by ELISA; assay type: functional, cell-based
HeLa [4] = assay: Effect on HIF1alpha mRNA expression in human HeLa cells incubated for 2 hrs under hypoxic conditions by RT-PCR; assay type: functional, cell-based
[5] = target: T1, Hypoxia-inducible factor 1-alpha; assay: Inhibition of HIF1alpha accumulation in human HeLa cells incubated for 4 hrs under hypoxic conditions by Western blot; assay type: cell-based
Target sequence in this assay (Q16665 whole entry, looked up): as the sequence (Q16665 whole entry) above

SMILES | IC50 [2] [µM] | also measured
COC(=O)c1cccc(CNc2ccc(NC(=O)Nc3ccccc3)cc2)c1 | 7.21 | Activity (HeLa [1]): inactive; IC50 (HeLa [3]): 15 µM; inhibition (HeLa [3]): Dose-dependent effect; Activity (HeLa [4]): inactive; inhibition [5]: Dose-dependent effect
COc1cccc(CNc2ccc(NC(=O)Nc3ccccc3)cc2)c1 | 52.1 | 
COC(=O)c1ccc(CNc2ccc(NC(=O)Nc3ccccc3)cc2)cc1 | > 100 | 
COc1ccccc1CNc1ccc(NC(=O)Nc2ccccc2)cc1 | 17.4 | 
COC(=O)c1ccc(OC)c(CNc2ccc(NC(=O)Nc3ccccc3)cc2)c1 | 22.1 | 
COC(=O)c1cc(CNc2ccc(NC(=O)Nc3ccccc3)cc2)cc(C(=O)OC)c1 | 15.1 | 
O=C(Nc1ccccc1)Nc1ccc(NCc2cccc(C(=O)O)c2)cc1 | 41.6 | 
O=C(Nc1ccccc1)Nc1ccc(NCc2ccccc2O)cc1 | 32.7 | 
COc1cccc(CNc2ccc(NC(=O)Nc3ccccc3)cc2)c1OC | 8.62 | 
O=C(Nc1ccccc1)Nc1ccc(NCc2cccc(O)c2)cc1 | 69.9 | 
COc1cccc(OC)c1CNc1ccc(NC(=O)Nc2ccccc2)cc1 | 39.1 | 
O=C(Nc1ccccc1)Nc1ccc(NCc2ccc(C(=O)O)cc2)cc1 | > 100 | 
O=C(Nc1ccccc1)Nc1ccc(NCc2ccc(O)cc2)cc1 | 35.5 | 
COc1cc(CNc2ccc(NC(=O)Nc3ccccc3)cc2)cc(OC)c1 | 18.7 | 
COc1ccc(OC)c(CNc2ccc(NC(=O)Nc3ccccc3)cc2)c1 | 29.6 | 
COc1ccc(CNc2ccc(NC(=O)Nc3ccccc3)cc2)cc1 | 23 | 
O=C(Nc1ccccc1)Nc1ccc(NCc2ccccc2C(=O)O)cc1 | 51.7 | 
COC(=O)c1ccccc1CNc1ccc(NC(=O)Nc2ccccc2)cc1 | 32.5 | 
